Molecular target: β2-adrenergic receptor (β2AR) (Homo sapiens, UniProt P07550)
Procedure: For kinetic assays, the cells were washed with HBSS (Hanks Balanced Salt Solution with 20 mM HEPES) buffer.

Sequence of β2-adrenergic receptor (β2AR) (P07550 whole entry): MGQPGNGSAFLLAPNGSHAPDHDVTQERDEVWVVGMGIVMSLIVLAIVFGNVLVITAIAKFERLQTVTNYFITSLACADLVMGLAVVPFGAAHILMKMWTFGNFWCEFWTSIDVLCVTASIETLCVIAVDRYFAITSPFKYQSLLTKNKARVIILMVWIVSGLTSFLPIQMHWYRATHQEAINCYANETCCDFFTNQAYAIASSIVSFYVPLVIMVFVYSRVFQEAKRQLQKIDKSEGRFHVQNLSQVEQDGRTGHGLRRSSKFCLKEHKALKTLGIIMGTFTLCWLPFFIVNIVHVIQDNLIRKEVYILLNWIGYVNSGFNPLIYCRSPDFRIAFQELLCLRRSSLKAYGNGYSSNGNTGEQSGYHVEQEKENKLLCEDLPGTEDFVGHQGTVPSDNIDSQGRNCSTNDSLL

## CNC[C@H](O)c1ccc(O)c(O)c1 [epinephrine]
A431 cells
  epinephrine-induced DMR signal (phases): a small N-DMR, followed by a significant P-DMR event
  epinephrine-induced DMR signal, dose dependence: dose-dependent DMR signal
Quiescent A431 cells, about 100% confluency, 2 nM epinephrine, pixel level
  distribution of DMR signals (P-DMR amplitude, transition time): relatively tight distribution and are relatively homogenous

Source: patent US8703428B2, “Single-cell label-free assay” (Corning Incorporated, priority 2007, dated 2014)
